In US6589953B2, “Indole derivatives as 5-HT1B and 5-HT1D agonists” (Pierre Fabre Medicament, priority 1997, dated 2003):

melting point	Structure (SMILES)
154 to 156 °C	NCCc1c[nH]c2ccc(OCC(=O)N3CCN(c4ccc(-c5cccs5)cc4)CC3)cc12.O=C(O)/C=C/C(=O)O
170 °C	NCCc1c[nH]c2ccc(OCC(=O)N3CCN(c4ccc(C5=NCCO5)cc4)CC3)cc12.O=C(O)/C=C/C(=O)O
225 to 227 °C	Cl.NCCc1c[nH]c2ccc(OCC(=O)N3CCN(c4ccc(-c5nn[nH]n5)cc4)CC3)cc12
64 to 66 °C (dec.)	Cl.Cl.NCCc1c[nH]c2ccc(OCC(=O)N3CCN(c4ccc(-c5ncco5)cc4)CC3)cc12

Second part, the compound before the results:

Structure (SMILES)	melting point
NCCc1c[nH]c2ccc(OCC(=O)N3CCN(c4ccc(-c5nnc(-c6ccccc6)o5)cc4)CC3)cc12.O=C(O)/C=C/C(=O)O	170 °C
Cc1ccccc1-c1nnc(-c2ccc(N3CCN(C(=O)COc4ccc5[nH]cc(CCN)c5c4)CC3)cc2)o1.O=C(O)/C=C/C(=O)O	123 °C
NCCc1c[nH]c2ccc(OCC(=O)N3CCN(c4ccc(-c5ccncc5)cc4)CC3)cc12.O=C(O)/C=C/C(=O)O	176 °C
NCCc1c[nH]c2ccc(OCC(=O)N3CCN(c4ccc(-c5nc6ccccc6s5)cc4)CC3)cc12.O=C(O)/C=C/C(=O)O	156 to 160 °C
Cc1ccc(-c2nnc(-c3ccc(N4CCN(C(=O)COc5ccc6[nH]cc(CCN)c6c5)CC4)cc3)o2)cc1.O=C(O)/C=C/C(=O)O	135 °C
